RP-LC retention time data for 80 compounds are collected here from the METLIN SMRT retention time set (Domingo-Almenara et al. 2019).

The nature of this data set: gradient 5% acetonitrile 3 min, to 50% in 2 min, to 85% in 15 min, held 3 min, 100 µL/min. The conditions noted are these: column: Zorbax Extend-C18 2.1 x 50 mm; eluents: water / acetonitrile, 0.1% formic acid. The gist of the method: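 Standards, all pure, were combined into mixtures of ~100 molecules and run at 100 μL/min on a Zorbax Extend-C18 column (2.1 × 50 mm, 1.8 μm) with water and acetonitrile, each containing 0.1% formic acid. A coupled quadrupole time-of-flight mass spectrometer operated in positive and negative ionization mode. Retention time values come from computationally picked adduct peaks, each inspected manually.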
For the compound `O=C(NC1CC1)C1CCN(c2cnn(Cc3ccccc3)c(=O)c2)CC1`, the RP-LC retention time turned out to be 681 s.

`O=C(Cc1cc(-c2ccco2)on1)NCc1ccccn1`: the RP-LC retention time turned out to be 581 s.

`Cn1c(=O)c2cc(C(=O)NCc3cccc(C(F)(F)F)c3)nn2c2ccccc21` gave an RP-LC retention time of 945 s.

`Cc1nn(C2CCS(=O)(=O)C2)c(C)c1N1CCN(CC(=O)Nc2ccccc2F)CC1` (stereo not given) gave an RP-LC retention time of 558 s.

In the case of `O=C(Nc1ccc(C(=O)N2CCC(C(=O)NC3CCCCC3)CC2)cc1)c1ccc(Cl)cc1`, the RP-LC retention time worked out at 835 s.

As for `COc1ccc(NC(=O)c2[nH]c3cc(C)sc3c2CN(C)C)cc1`, the RP-LC retention time is 666 s.

`O=C1NCCCCCCN(C(=O)c2ccc3ccccc3n2)[C@H]2C[C@H](C(=O)N3CCc4ccccc4C3)C[C@@H]12` had an RP-LC retention time of 896 s.

In turn, `Cc1sc(NC(=O)CCc2ccccc2)nc1-c1ccc2c(c1)N(C)C(=O)CO2` returned an RP-LC retention time of 1010 s.

For the compound `CCCCS(=O)(=O)N1CCC(N2CC(F)(F)C[C@H]2COc2cccnc2)CC1`, the RP-LC retention time is 682 s.

Take `Cc1csc(-c2cc(S(=O)(=O)NCCc3cccs3)c(C)n2C)n1`: the RP-LC retention time was determined as 973 s.

In the case of `CC(C)CCC(=O)NCCc1nc2cccnc2n1-c1ccccc1`, the RP-LC retention time was 717 s.

On to `Cc1ccc(NC(=O)N2CCc3nc(-c4ccc(Cl)cc4)ncc3C2)cc1C`, for which the RP-LC retention time stood at 1160 s.

The compound `O=C(Nc1ccc(F)cc1)C1CC(=O)N(CCc2c[nH]c3ccc(Cl)cc23)C1` (stereo not given) came in with an RP-LC retention time of 871 s.

As for `CC(C)CNC(=O)C1COC2(CCCCC2)N1C(=O)c1ccccc1C(F)(F)F` (stereo not given), the RP-LC retention time is 938 s.

As to `CN1C(=O)C2(CCN(C(=O)c3ccccc3)C2)c2ccccc21` (stereo not given), the RP-LC retention time amounted to 707 s.

As for `COc1ccc(C(=O)NC2CCN(c3cc(-c4cccs4)[nH]n3)C2)c(OC)c1` (stereo not given), the RP-LC retention time is 724 s.

The compound `CC1Oc2ccc(-c3csc(NC(=O)c4cccs4)n3)cc2N(C)C1=O` (stereo not given) came in with an RP-LC retention time of 949 s.

As to `O=C(NCc1ccc2c(c1)OCO2)c1n[nH]nc1Nc1ccc(F)cc1`, the RP-LC retention time was found to be 872 s.

As for `CC1=C(c2ccccc2)S(=O)(=O)N=C1N1CCC(NC(=O)C2CCCO2)CC1` (stereo not given), the RP-LC retention time worked out at 702 s.

`COc1ccc2cc(C(=O)N3CCC(C(C)C(=O)NCCc4c[nH]c5ccccc45)CC3)[nH]c2c1` (stereo not given) came in with an RP-LC retention time of 818 s.

In the case of `Cc1oc(-c2[nH]ncc2C(=O)N2CCCC2)cc1S(=O)(=O)Nc1cccc(Cl)c1`, the RP-LC retention time was found to be 741 s.

Consider `COCCCNC(=O)c1nnc(-c2ccc(S(=O)(=O)N(C)C)cc2)o1`, for which the RP-LC retention time came to 717 s.

Take `COc1ccc(C2Cn3nnc(-c4nc(-c5ccc(OC)c(F)c5)no4)c3CO2)cc1` (stereo not given): the RP-LC retention time was 1040 s.

Regarding `CCCn1cc(CCNC(=O)Nc2cccc(C)c2C)c2cccnc21`, the RP-LC retention time is 785 s.

`Cc1cc(C(=O)NCCN2CCOCC2)c2cc(Br)ccc2n1` had an RP-LC retention time of 582 s.

In turn, `O=c1[nH]c2ccc(NCc3ccc(F)cc3)cc2[nH]1` gave an RP-LC retention time of 580 s.

Turning to `O=C(NCc1ccccn1)C1CCCN(c2ncnc3c2oc2ccccc23)C1` (stereo not given), the RP-LC retention time stood at 579 s.

Take `Cc1[nH]c(=O)[nH]c(=O)c1/C=C/C(=O)NC(CO)CC(C)C` (stereo not given): the RP-LC retention time worked out at 592 s.

Turning to `CCOc1ccc2cccc(NC(=O)c3ccccc3C(F)(F)F)c2n1`, the RP-LC retention time amounted to 1200 s.

Compound `CCOC(=O)C1CCN(C(=O)CCC(=O)N2CCCn3nc(C)cc32)CC1` came in with an RP-LC retention time of 646 s.

As for `CC(C)(NS(=O)(=O)c1ccc(Oc2ccc(F)cc2)cc1)C(=O)NO`, the RP-LC retention time was 804 s.

The compound `Cc1ccccc1Nc1c(-c2ccc3c(c2)OCO3)nc2cnccn12` gave an RP-LC retention time of 860 s.

In the case of `CCCCNC(=O)Cn1nc2c3cc(-c4ccccc4)nn3ccn2c1=O`, the RP-LC retention time is 807 s.

Take `Cc1ccc(CNC(=O)CN2CCc3ccccc3C2C(=O)N2CCCCC2)cc1C` (stereo not given): the RP-LC retention time was 908 s.

Consider `Cc1ccccc1CNC(=O)Cn1c(C)cc(-c2nnc(C3CCC3)o2)c1C`, for which the RP-LC retention time was found to be 902 s.

`COc1cccc(N2CCN(C(=O)c3cn4ccccc4n3)CC2)c1` came in with an RP-LC retention time of 644 s.

Regarding `COC(=O)c1ccc(NC(=O)CSc2nnc(C)c3cnn(-c4ccccc4)c23)cc1`, the RP-LC retention time was determined as 705 s.

`O=C(NCc1cccnc1)c1ccc2ccnc(N3CCN(C(=O)c4ccco4)CC3)c2c1` showed an RP-LC retention time of 563 s.

`CCOc1cc(-c2nc(C3CC(=O)N(c4ccc(OC)cc4)C3)no2)cc(OCC)c1OCC` (stereo not given) gave an RP-LC retention time of 1040 s.

`COc1ccc2nc(C)cc(SCC(=O)Nc3csc4nc(=O)c(C)nn34)c2c1` yielded an RP-LC retention time of 590 s.

`CCC(C)Nc1nc(-c2ccc(Cl)cc2)nc2ccccc12` (stereo not given) gave an RP-LC retention time of 822 s.

Regarding `Cn1nccc1-c1cccc(-c2noc(-c3ccoc3)n2)c1`, the RP-LC retention time turned out to be 938 s.

`O=C(Cc1c[nH]c2ccccc12)N1CC(n2cc(COCC3CC3)nn2)C1` came in with an RP-LC retention time of 704 s.

In turn, `CCn1cc(-c2ccc(Cl)cc2)cc1C(=O)NCc1ccncc1` came in with an RP-LC retention time of 720 s.

Take `O=c1ccc(-c2ccc(Cl)cc2)nn1CCc1nc(-c2cccs2)no1`: the RP-LC retention time was 1000 s.

Consider `CC1=C(c2ccc(C)cc2)S(=O)(=O)N=C1N1CCCN(C(=O)NC(C)C)CC1`, for which the RP-LC retention time was 772 s.

For `CCN(CC)CCNc1ncnc2c1cnn2-c1ccc(C)cc1`, the RP-LC retention time was determined as 642 s.

Consider `Cc1ccc(S(=O)(=O)N2CCC(C)CC2)cc1-c1nnc(-c2ccccc2)o1`, for which the RP-LC retention time stood at 1180 s.

`OC1(c2ccccc2)CCN(Cc2ccccc2)CC1` returned an RP-LC retention time of 553 s.

Compound `CN(CC1CCOCC1)S(=O)(=O)Cc1ccccc1F` had an RP-LC retention time of 786 s.

With `Cc1ccccc1Oc1nccnc1N1CCC(C(=O)NC2CCCCCC2)CC1`, the RP-LC retention time worked out at 1090 s.

For `O=C1CCCN1Cc1noc(-c2cccc(Cl)c2)n1`, the RP-LC retention time came out at 814 s.

Turning to `O=C(CCc1conc1-c1ccc(F)cc1)NCc1ccc2c(c1)OCO2`, the RP-LC retention time was 848 s.

With `COc1ccc(Nc2c(C(=O)N3CCCC3)cnc3nc(C)ccc23)cc1OC`, the RP-LC retention time was 906 s.

Regarding `COc1ccc(OC)c(Nc2c(C(=O)N3CCC(C)CC3)cnc3nc(C)ccc23)c1`, the RP-LC retention time came to 662 s.

Compound `Cc1cc(C(=O)NC2CCCCC2)nn1C` came in with an RP-LC retention time of 755 s.

As for `O=C(CCn1nnc2cc(-c3noc(COc4ccc(F)cc4)n3)ccc21)N1CCOCC1`, the RP-LC retention time was found to be 823 s.

In turn, `COCc1noc([C@@H]2CN(C(=O)C3(c4ccccc4)CC3)C[C@H]2CO)n1` had an RP-LC retention time of 676 s.

As for `Cc1ccc(NS(=O)(=O)c2cc(-c3nc(C(C)C)cs3)cs2)c(C)c1`, the RP-LC retention time worked out at 1210 s.

In turn, `CCOC(=O)c1nn(-c2ccccc2C)c(=O)cc1NCc1ccc2c(c1)OCO2` registered an RP-LC retention time of 874 s.

Consider `CCCCS(=O)(=O)N1CCc2c(c(-c3nnc(SCC)n3CC)nn2C)C1`, for which the RP-LC retention time turned out to be 878 s.

For the compound `CCn1cc(-c2nc(CC(=O)Nc3ccc(C#N)cc3)cs2)c2cccnc21`, the RP-LC retention time was 879 s.

`CCCn1ccc2oc(C)c(C(=O)NCc3c(C)cc(C)cc3C)c2c1=O` displayed an RP-LC retention time of 1200 s.

In the case of `Cc1cccc(S(=O)(=O)N2CCCC(Cn3c(C)nc4cccnc43)C2)c1` (stereo not given), the RP-LC retention time turned out to be 821 s.

Regarding `CN(C)[C@@H]1CN(C(=O)Cc2cccc3ccccc23)C[C@H]1CO`, the RP-LC retention time came to 546 s.

In the case of `CCc1cc(C(=O)NCCN2CCOCC2)nc2cc(-c3cccs3)nn12`, the RP-LC retention time is 670 s.

`C=CCn1c(SCC(=O)NCC2CCCO2)nc2scc(-c3ccc(C)o3)c2c1=O` (stereo not given) came in with an RP-LC retention time of 895 s.

On to `COc1ccc(-c2cc3c(=O)n(CC(=O)N4CCN(c5ccccn5)CC4)ncn3n2)cc1`, for which the RP-LC retention time came out at 641 s.

As for `O=C(NCc1cc(-c2ccc3c(c2)OCO3)on1)c1c(F)cccc1Cl`, the RP-LC retention time came out at 785 s.

For the compound `CCc1nc(NC(=O)Cn2nc3c(cc2=O)CCCCC3)sc1C`, the RP-LC retention time was 828 s.

`Cc1c(C(=O)N(C)C)cc(-c2ccccc2)n1C` gave an RP-LC retention time of 812 s.

`Cc1cc(-c2nnc(-c3ccc(F)cc3)o2)c(C)n1CC(=O)NCc1ccccn1` returned an RP-LC retention time of 673 s.

As to `CCOC(=O)C1CCN(c2nnc(-c3nc(C4CC4)no3)c3ccccc23)CC1`, the RP-LC retention time worked out at 953 s.

`Cc1cc2nn(CC(=O)NCc3ccccc3)c(=O)n2c(Nc2ccc(C)c(F)c2)n1` came in with an RP-LC retention time of 1060 s.

`CCc1ccc(-c2noc(CN3C(=O)COc4ccccc43)n2)cc1` registered an RP-LC retention time of 1120 s.

For `CC(=O)Cc1nsc(NC(=O)c2cc(-c3cccc(C(F)(F)F)c3)oc2C)n1`, the RP-LC retention time came out at 657 s.

The compound `CN1C(=O)Cc2ccccc2C1C(=O)N1CCN(c2ccc(Cl)cc2)CC1` (stereo not given) gave an RP-LC retention time of 854 s.

`CN1C(=O)Cc2cc(NC(=O)c3ccc(C(F)(F)F)cc3)ccc21` displayed an RP-LC retention time of 748 s.

The compound `Cc1ccc(CNC(=O)C2CCN(c3cncnc3N3CCOCC3)CC2)cc1C` displayed an RP-LC retention time of 649 s.

In turn, `CNS(=O)(=O)c1ccc(Cl)c(-c2nnc(-c3ccccc3)o2)c1` yielded an RP-LC retention time of 870 s.
